# ChEMBL document CHEMBL1140026 (Bioorg Med Chem Lett, 2007)
# Molecular target: cGMP-specific 3',5'-cyclic phosphodiesterase (Homo sapiens, UniProt O76074)
# Test: Inhibition of PDE5
row,IC50,Compound
1,0.0501 nM,CCCOc1ccc(S(=O)(=O)N2CCC(CCC(=O)O)CC2)cc1-c1nc2c(CCC)nn(C)c2c(=O)[nH]1
2,240 nM,CCCc1nn(C)c2c(=O)[nH]c(-c3cc(S(=O)(=O)N4CCN(C)CC4)cc4c3OCC4)nc12
3,7.94 nM,CCCc1nn(C)c2c(=O)[nH]c(-c3cc(S(=O)(=O)N4CCN(C)CC4)cc4c3OCCO4)nc12
4,204 nM,CCCc1nn(C)c2c(=O)[nH]c(-c3cc(S(=O)(=O)N4CCN(CCO)CC4)cc4c3OCC4)nc12
5,331 nM,CCCc1nn(C)c2c(=O)[nH]c(-c3cc(S(=O)(=O)N4CCN(CCO)CC4)cc4c3OCO4)nc12
6,6.31 nM,CCCc1nn(C)c2c(=O)[nH]c(-c3cc(S(=O)(=O)N4CCN(CCO)CC4)cc4c3OCCO4)nc12
7,0.513 nM,CCCc1nn(C)c2c(=O)[nH]c(-c3cc(S(=O)(=O)N4CCC(C(=O)O)CC4)ccc3OCC)nc12
8,0.331 nM,CCCc1nn(C)c2c(=O)[nH]c(-c3cc(S(=O)(=O)N4CCC(CC(=O)O)CC4)ccc3OCC)nc12
9,0.269 nM,CCCOc1ccc(NC(=O)CCC)cc1-c1nc2c(CCC)nn(C)c2c(=O)[nH]1
10,0.407 nM,CCCc1nn(C)c2c(=O)[nH]c(-c3cc(S(=O)(=O)N4CCN(CCC(=O)O)CC4)ccc3OCC)nc12
11,0.347 nM,CCCOc1ccc(NC(=O)C(C)C)cc1-c1nc2c(CCC)nn(C)c2c(=O)[nH]1
12,0.11 nM,CCCOc1ccc(S(=O)(=O)N2CCC(CC(=O)O)CC2)cc1-c1nc2c(CCC)nn(C)c2c(=O)[nH]1
13,0.813 nM,CCCOc1ccc(NC(C)=O)cc1-c1nc2c(CCC)nn(C)c2c(=O)[nH]1
14,0.219 nM,CCCc1nn(C)c2c(=O)[nH]c(-c3cc(S(=O)(=O)N4CCC(CCCC(=O)O)CC4)ccc3OCC)nc12
15,0.151 nM,CCCc1nn(C)c2c(=O)[nH]c(-c3cc(S(=O)(=O)N4CCC(CCC(=O)O)CC4)ccc3OCC)nc12
16,0.38 nM,CCCOc1ccc(NC(=O)CC)cc1-c1nc2c(CCC)nn(C)c2c(=O)[nH]1
17,0.151 nM,CCCOc1ccc(S(=O)(=O)N2CCC(C(=O)O)CC2)cc1-c1nc2c(CCC)nn(C)c2c(=O)[nH]1
18,0.501 nM,CCCOc1ccc(S(=O)(=O)N2CCC(CCCC(=O)O)CC2)cc1-c1nc2c(CCC)nn(C)c2c(=O)[nH]1
19,0.417 nM,CCCOc1ccc(NC(=O)C2CCCCC2)cc1-c1nc2c(CCC)nn(C)c2c(=O)[nH]1
20,12.6 nM,CCCc1nn(C)c2c(=O)[nH]c(-c3cc(S(=O)(=O)N4CCN(CCO)CC4)cc4c3OCCC4)nc12
